Measurements from US12024503B2, “Benzethers and anilines of pyrazolyl-amino-pyrimidinyl derivatives, and compositions and methods thereof” (LYNK PHARMACEUTICALS CO. LTD., priority 2019, dated 2024).
pIC50: −log10 of the molar value. Where two headings read alike, the source gives them in different places.

Columns and labels:
Type in all cases: biochemical
JAK2V617F = molecular target: T1, JAK2V617F (Homo sapiens, UniProt O60674, V617F); assay: JAK2V617F microfluidic kinase assay (Caliper EZ Reader II, FAM labeled peptide substrate); settings: (2.5 nM), 1 mM ATP
T1 construct: purchased Carna Biosciences
T1 sequence (O60674 whole entry V617F): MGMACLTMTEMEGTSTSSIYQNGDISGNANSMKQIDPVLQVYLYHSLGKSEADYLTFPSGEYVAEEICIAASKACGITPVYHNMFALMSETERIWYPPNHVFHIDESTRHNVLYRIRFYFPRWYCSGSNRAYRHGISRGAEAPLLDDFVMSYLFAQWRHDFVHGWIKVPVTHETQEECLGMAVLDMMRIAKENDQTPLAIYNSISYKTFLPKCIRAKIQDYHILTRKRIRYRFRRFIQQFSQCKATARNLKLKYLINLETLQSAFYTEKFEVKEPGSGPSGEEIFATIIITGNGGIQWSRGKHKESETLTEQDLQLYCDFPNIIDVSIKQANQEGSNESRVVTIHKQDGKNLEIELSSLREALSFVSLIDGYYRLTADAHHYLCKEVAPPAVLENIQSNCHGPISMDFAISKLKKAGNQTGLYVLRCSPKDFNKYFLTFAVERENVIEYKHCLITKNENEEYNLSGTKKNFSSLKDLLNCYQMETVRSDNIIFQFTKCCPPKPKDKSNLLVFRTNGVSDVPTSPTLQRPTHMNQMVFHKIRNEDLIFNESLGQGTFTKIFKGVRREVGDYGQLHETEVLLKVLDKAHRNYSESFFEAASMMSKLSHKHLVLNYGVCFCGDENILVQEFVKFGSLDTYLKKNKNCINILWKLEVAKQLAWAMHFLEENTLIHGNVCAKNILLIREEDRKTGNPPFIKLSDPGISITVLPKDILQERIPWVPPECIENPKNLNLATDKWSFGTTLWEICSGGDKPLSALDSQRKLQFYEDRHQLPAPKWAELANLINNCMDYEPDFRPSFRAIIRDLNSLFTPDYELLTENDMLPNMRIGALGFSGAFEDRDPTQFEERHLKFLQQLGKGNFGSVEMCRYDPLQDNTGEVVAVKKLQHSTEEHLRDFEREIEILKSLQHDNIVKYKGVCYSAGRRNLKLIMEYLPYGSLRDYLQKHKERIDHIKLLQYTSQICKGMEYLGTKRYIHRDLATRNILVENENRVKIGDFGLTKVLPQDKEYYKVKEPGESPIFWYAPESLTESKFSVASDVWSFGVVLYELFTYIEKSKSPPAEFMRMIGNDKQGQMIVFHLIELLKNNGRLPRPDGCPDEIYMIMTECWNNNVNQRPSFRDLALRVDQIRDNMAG
Method: (§1) Compounds were tested against JAK1, JAK2, JAK2V617F and TYK2.
(§2) Assay Formats: JAK activity was determined in the reaction buffer 50 mM HEPES, 0.01% Brij35, 10 mMMgCl2, 2 mMDTT by a microfluidic assay. The phosphorylation of a FAM labeled peptide substrate was monitored in the Caliper EZ Reader II (Perkin Elmer). The assay condition for each batch of enzyme (Carna Biosciences) was optimized to obtain 10% conversion rate of peptide substrate.
(§3) The test compounds were dissolved in DMSO to a stock concentration of 10 mM. 3-fold serially diluted compounds with top concentration of 5 μM were pre-incubated with JAK1, JAK2, JAK2V617F or TYK2 for 10 min at ambient temperature. The final DMSO concentration of assay mixture was 1%. FAM labeled peptide substrate (final concentration […]) and ATP (1 mM concentration) were sequentially added to initiate the kinase reaction at 28° C. The reaction was stopped by adding 50 mMEDTA. The reaction time for JAK1, JAK2, JAK2V617F and TYK2 was 120 min, 20 min, 30 min and 10 min, respectively.
(§4) The well in the test plate without enzyme was defined as 100% inhibition. And the well without compound but with equivalent DMSO was defined as no inhibition. The percent inhibition was calculated by the following formula. % Inhibition=(Conversionmax−Conversionsample)/(Conversionmax−Conversionmin)*100Conversionmax means the conversion rate in the positive well without addition of compound Conversionmin means the conversion rate in the well without addition of enzyme Conversionsample means the conversion rate of test compounds
(§5) The dose-response (percent inhibition) curve was plotted and IC50 values were determined by GraphPad software.

JAK1 = molecular target: T2, JAK1 (Homo sapiens, UniProt P23458); assay: JAK1 microfluidic kinase assay (Caliper EZ Reader II, FAM labeled peptide substrate); settings: (5 nM), 1 mM ATP
T2 construct: purchased Carna Biosciences
T2 sequence (P23458 whole entry): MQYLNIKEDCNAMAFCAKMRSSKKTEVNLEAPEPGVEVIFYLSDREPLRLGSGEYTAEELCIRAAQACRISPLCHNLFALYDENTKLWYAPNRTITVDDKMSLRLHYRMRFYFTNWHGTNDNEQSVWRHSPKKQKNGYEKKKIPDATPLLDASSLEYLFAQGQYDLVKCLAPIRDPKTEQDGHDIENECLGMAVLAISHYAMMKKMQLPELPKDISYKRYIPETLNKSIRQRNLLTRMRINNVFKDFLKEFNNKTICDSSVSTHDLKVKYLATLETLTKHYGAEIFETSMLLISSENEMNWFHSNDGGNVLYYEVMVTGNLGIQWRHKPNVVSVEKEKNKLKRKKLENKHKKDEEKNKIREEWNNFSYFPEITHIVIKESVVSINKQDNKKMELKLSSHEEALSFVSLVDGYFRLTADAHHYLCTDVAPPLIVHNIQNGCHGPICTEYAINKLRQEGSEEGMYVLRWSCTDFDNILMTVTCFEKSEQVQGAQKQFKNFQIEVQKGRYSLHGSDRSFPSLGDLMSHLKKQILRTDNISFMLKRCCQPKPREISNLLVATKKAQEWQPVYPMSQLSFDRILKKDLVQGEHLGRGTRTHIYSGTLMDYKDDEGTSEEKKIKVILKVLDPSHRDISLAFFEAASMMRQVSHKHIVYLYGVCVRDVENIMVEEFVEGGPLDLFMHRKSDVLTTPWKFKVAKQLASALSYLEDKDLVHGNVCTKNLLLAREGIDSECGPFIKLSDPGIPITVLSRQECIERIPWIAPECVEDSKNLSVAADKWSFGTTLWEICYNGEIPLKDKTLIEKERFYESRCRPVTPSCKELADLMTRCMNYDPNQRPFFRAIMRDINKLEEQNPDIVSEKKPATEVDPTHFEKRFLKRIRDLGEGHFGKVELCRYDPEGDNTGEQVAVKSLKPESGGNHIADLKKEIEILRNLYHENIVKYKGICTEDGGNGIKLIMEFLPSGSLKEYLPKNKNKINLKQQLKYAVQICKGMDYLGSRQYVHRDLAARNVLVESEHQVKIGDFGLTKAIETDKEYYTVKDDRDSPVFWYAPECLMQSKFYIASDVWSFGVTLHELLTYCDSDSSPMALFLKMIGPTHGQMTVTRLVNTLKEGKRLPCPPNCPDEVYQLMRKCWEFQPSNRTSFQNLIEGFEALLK
Method: as §1, §2, §3, §4, §5

JAK2 = molecular target: T3, JAK2 (Homo sapiens, UniProt O60674); assay: JAK2 microfluidic kinase assay (Caliper EZ Reader II, FAM labeled peptide substrate); settings: (0.25 nM), 1 mM ATP
T3 construct: purchased Carna Biosciences
T3 sequence (O60674 whole entry): as the sequence (O60674 whole entry V617F) above, with F617V counted along it
Method: as §1, §2, §3, §4, §5

[1] = Table 2, read-out: IC50 J2V617F (2.5 nM) (1 mM ATP)
[2] = Table 2, read-out: IC50 JAK1 (5 nM) (1 mM ATP)
[3] = Table 2, read-out: IC50 JAK2 (0.25 nM) (1 mM ATP)
[4] = Table 3B, literature compounds, read-out: JAK2 (0.25 nM) (1 mM ATP)
[5] = Table 3B, literature compounds, read-out: J2V617F (2.5 nM) (1 mM ATP)
[6] = Table 3B, literature compounds, read-out: JAK1 (5 nM) (1 mM ATP)

Row | SMILES | pIC50 (JAK2V617F; [1]) | pIC50 (JAK1; [2]) | also measured
1 | Cc1cnc(Nc2cnn(C3CC3)c2)nc1-c1ccc(OC2CC(C#N)C2)cc1 (centres unmarked) [Example 2, 3-(4-(2-((1-cyclopropyl-1H-pyrazol-4-yl)amino)-5-methylpyrimidin-4-yl)phenoxy)cyclobutanecarbonitrile] | 6.77 | 7.14 | 
2 | Cc1cnc(Nc2cnn(C3CCN(C(=O)C4CC4)CC3)c2)nc1-c1ccc(OCC2(C#N)CC2)c(F)c1 [Example 8, 1-((4-(2-((1-(1-(cyclopropanecarbonyl)piperidin-4-yl)-1H-pyrazol-4-yl)amino)-5-methylpyrimidin-4-yl)-2-fluorophenoxy)methyl)cyclopropane-carbonitrile] | > 8.90 | 8.21 | 
3 | Cc1cnc(Nc2cnn(C3CCN(C(=O)C4(C)CC4)CC3)c2)nc1-c1ccc(OCC2(C#N)CC2)c(F)c1 [Example 9, 1-((2-fluoro-4-(5-methyl-2-((1-(1-(1-methylcyclopropanecarbonyl)piperidin-4-yl)-1H-pyrazol-4-yl)amino)pyrimidin-4-yl)phenoxy)methyl)cyclopropane-carbonitrile] | > 8.90 | 8.15 | 
4 | Cc1cnc(Nc2cnn(C3CC3)c2)nc1-c1cc(F)c(OCC2(C#N)CC2)c(F)c1 [Example 10, 1-((4-(2-((1-cyclopropyl-1H-pyrazol-4-yl)amino)-5-methylpyrimidin-4-yl)-2,6-difluorophenoxy)methyl)cyclopropane carbonitrile] | 6.95 | 6.91 | 
5 | CC(=O)N1CCC(n2cc(Nc3ncc(C)c(-c4ccc(OCC5(C#N)CC5)c(F)c4)n3)cn2)CC1 [Example 13, 1-((4-(2-((1-(1-acetylpiperidin-4-yl)-1H-pyrazol-4-yl)amino)-5-methylpyrimidin-4-yl)-2-fluorophenoxy)methyl)cyclopropane-carbonitrile] | > 8.90 | 8.25 | 
6 | Cc1cnc(Nc2cnn(C3CCOCC3)c2)nc1-c1ccc(OCC(C)(C)C#N)cc1 [Example 15, 2,2-dimethyl-3-(4-(5-methyl-2-((1-(tetrahydro-2H-pyran-4-yl)-1H-pyrazol-4-yl)amino)pyrimidin-4-yl)phenoxy)propanenitrile] | > 8.90 | 8.24 | 
7 | Cc1cnc(Nc2cnn(C3CCOCC3)c2)nc1-c1ccc(OC(C)C(C)(C)C#N)cc1 (centres unmarked) [Example 16, 2,2-dimethyl-3-(4-(5-methyl-2-((1-(tetrahydro-2H-pyran-4-yl)-1H-pyrazol-4-yl)amino)pyrimidin-4-yl)phenoxy)butanenitrile] | 8.20 | 7.41 | 
8 | N#CC1(COc2ccc(-c3nc(Nc4cnn(C5CCOCC5)c4)ncc3F)cc2F)CC1 [Example 22, 1-((2-fluoro-4-(5-fluoro-2-((1-(tetrahydro-2H-pyran-4-yl)-1H-pyrazol-4-yl)amino)pyrimidin-4-yl)phenoxy)methyl)cyclopropane-carbonitrile] | 7.25 | 6.87 | 
9 | N#CC1(COc2ccc(-c3nc(Nc4cnn(C5CCOCC5)c4)ncc3Cl)cc2F)CC1 [Example 23, 1-((4-(5-chloro-2-((1-(tetrahydro-2H-pyran-4-yl)-1H-pyrazol-4-yl)amino)pyrimidin-4-yl)-2-fluorophenoxy)methyl)cyclopropane-carbonitrile] | > 8.90 | 7.87 | 
10 | COc1ccc(-c2nc(Nc3cnn(C)c3)ncc2C)cc1F [Example 45, 4-(3-fluoro-4-methoxyphenyl)-5-methyl-N-(1-methyl-1H-pyrazol-4-yl)pyrimidin-2-amine, reference compound] |  |  | pIC50 (JAK2; [4]): 6.92; pIC50 (JAK2V617F; [5]): 6.69; pIC50 (JAK1; [6]): 6.96
11 | Cc1cnc(Nc2cnn(C)c2)nc1-c1ccc(OC(C)C)c(F)c1 [Example 47, 4-(3-fluoro-4-isopropoxyphenyl)-5-methyl-N-(1-methyl-1H-pyrazol-4-yl)pyrimidin-2-amine, reference compound] |  |  | pIC50 (JAK2; [4]): 7.21; pIC50 (JAK2V617F; [5]): 7.07; pIC50 (JAK1; [6]): 7.31

Now from value to molecule, other results behind:

Row | pIC50 (JAK2V617F; [1]) | pIC50 (JAK1; [2]) | SMILES | also measured
12 | 6.95 | 7.07 | N#CC1(COc2ccc(-c3nc(Nc4cnn(C5CC5)c4)ncc3F)cc2F)CC1 [Example 24, 1-((4-(2-((1-cyclopropyl-1H-pyrazol-4-yl)amino)-5-fluoropyrimidin-4-yl)-2-fluorophenoxy)methyl)cyclopropane-carbonitrile] | 
13 | 7.49 | 7.49 | CC(C)(C#N)COc1ccc(-c2nc(Nc3cnn(C4CCOCC4)c3)ncc2F)cc1F [Example 25, 3-(2-fluoro-4-(5-fluoro-2-((1-(tetrahydro-2H-pyran-4-yl)-1H-pyrazol-4-yl)amino)pyrimidin-4-yl)phenoxy)-2,2-dimethylpropanenitrile] | 
14 | > 8.90 | 8.21 | CC(C)(C#N)COc1ccc(-c2nc(Nc3cnn(C4CCOCC4)c3)ncc2Cl)cc1F [Example 26, 3-(4-(5-chloro-2-((1-(tetrahydro-2H-pyran-4-yl)-1H-pyrazol-4-yl)amino)pyrimidin-4-yl)-2-fluorophenoxy)-2,2-dimethylpropanenitrile] | 
15 | 8.83 | 8.26 | N#CC1(COc2ccc(-c3nc(Nc4cnn(C5CC5)c4)ncc3Cl)cc2F)CC1 [Example 27, 1-((4-(5-chloro-2-((l-cyclopropyl-1H-pyrazol-4-yl)amino)pyrimidin-4-yl)-2-fluorophenoxy)methyl)cyclopropane carbonitrile] | 
16 | > 8.90 | > 8.60 | CC(=O)N1CCC(n2cc(Nc3ncc(C)c(-c4ccc(OCC(C)(C)C#N)c(F)c4)n3)cn2)CC1 [Example 28, 3-(4-(2-((1-(1-acetylpiperidin-4-yl)-1H-pyrazol-4-yl)amino)-5-methylpyrimidin-4-yl)-2-fluorophenoxy)-2,2-dimethylpropanenitrile] | 
17 |  | > 8.60 | Cc1cnc(Nc2cnn(CC#N)c2)nc1-c1ccc(OCC(C)(C)C#N)c(F)c1 [Example 30, 3-(4-(2-((1-(cyanomethyl)-1H-pyrazol-4-yl)amino)-5-methylpyrimidin-4-yl)-2-fluorophenoxy)-2,2-dimethylpropanenitrile] | pIC50 (JAK2; [3]): 9.52
18 |  | 8.10 | Cc1cnc(Nc2cnn(CC#N)c2)nc1-c1ccc(OCC2(C#N)CC2)c(F)c1 [Example 31, 1-((4-(2-((1-(cyanomethyl)-1H-pyrazol-4-yl)amino)-5-methylpyrimidin-4-yl)-2-fluorophenoxy)methyl)cyclopropane-carbonitrile] | pIC50 (JAK2; [3]): 8.49
19 |  | 6.87 | Cc1cnc(Nc2cnn(C3CC3)c2)nc1-c1ccc2c(c1)CC(C#N)CO2 (centres unmarked) [Example 34, 6-(2-((1-cyclopropyl-1H-pyrazol-4-yl)amino)-5-methylpyrimidin-4-yl)chroman-3-carbonitrile] | pIC50 (JAK2; [3]): 7.23
20 |  | 7.14 | Cc1cnc(Nc2cnn(C3CC3)c2)nc1-c1ccc(N(C)CC(C)(C)C#N)c(F)c1 [Example 35, 3-((4-(2-((1-cyclopropyl-1H-pyrazol-4-yl)amino)-5-methylpyrimidin-4-yl)-2-fluorophenyl)(methyl)amino)-2,2-dimethylpropanenitrile] | pIC50 (JAK2; [3]): 8.78
21 |  | 6.99 | CN(CC(C)(C)C#N)c1ccc(-c2nc(Nc3cnn(C4CC4)c3)ncc2Cl)cc1F [Example 36, 3-((4-(5-chloro-2-((1-cyclopropyl-1H-pyrazol-4-yl)amino)pyrimidin-4-yl)-2-fluorophenyl)(methyl)amino)-2,2-dimethylpropanenitrile] | pIC50 (JAK2; [3]): 8.34
